Converted amounts (≈) assume the structure as drawn.

Series [1] deals with T1, acid ceramidase (Homo sapiens, UniProt Q13510).
T1 construct: Cell lysates overexpressing acid ceramidase were used as the enzyme source; expressed in transfected cells
T1 sequence (Q13510 22-395): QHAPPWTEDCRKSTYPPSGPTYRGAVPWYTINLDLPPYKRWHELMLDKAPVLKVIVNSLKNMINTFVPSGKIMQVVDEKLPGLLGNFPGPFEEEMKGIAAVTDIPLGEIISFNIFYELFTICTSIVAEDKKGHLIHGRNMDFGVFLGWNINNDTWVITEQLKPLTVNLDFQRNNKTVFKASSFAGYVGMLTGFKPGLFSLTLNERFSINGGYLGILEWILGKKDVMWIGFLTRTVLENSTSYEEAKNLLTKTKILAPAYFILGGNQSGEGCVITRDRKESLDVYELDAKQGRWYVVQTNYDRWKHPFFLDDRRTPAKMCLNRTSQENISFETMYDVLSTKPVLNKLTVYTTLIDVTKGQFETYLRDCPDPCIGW
The experiment in a line: Acid ceramidase inhibition, biochemical fluorescent assay with cell lysates overexpressing acid ceramidase, substrate Rbm14-12. Conditions: substrate Rbm14-12 6.3 μM. The protocol:
The ability of exemplary compounds to inhibit acid ceramidase was measured.
Cell lysates overexpressing acid ceramidase were used as the enzyme source for compound potency determination in a biochemical fluorescent assay. Briefly, compounds were preincubated with 10 μg protein of cell lysates in a dose-response manner for 1 hr at RT in the assay buffer containing 25 mM NaAC and 100 mM NaCl, pH 4.5. The reaction was initiated by the addition of substrate Rbm14-12 at a final concentration of 6.3 μM. The reaction was run at RT for 1 hr before it was stopped by the addition of the stopping buffer containing 20% methanol (v/v), 1 mg/ml NaIO4, 0.1 M glycine, pH 10.6. The samples were incubated with the stopping buffer at RT for 1 hr to allow the fluorescent product to be formed. Finally, the plate was read with SpectraMax i3 plate reader (Molecular Devices) at ex360 nm and em446 nm. Data were collected and used to determine the IC50 values of compounds by curve fitting to the four-parameter inhibition equation.

A short description of series [2]: Compound solubility in water.
Where [3] appears, read: pH 4.5, 1 hr preincubation at RT.

On to `CC(=O)N1CCN(c2cccc3c2ncn3C(=O)NCCCc2ccccc2)CC1` [Example 218, 4-(4-Acetylpiperazin-1-yl)-N-(3-phenylpropyl)-1H-benzo[d]imidazole-1-carboxamide], for which, in series [1] (pH 4.5), the IC50 was < 200 nM. The molecule further came in with a solubility in series [2] of 24 µg/mL (≈ 59.2 µM).
Regarding `CCCCNC(=O)n1c(OC)nc2nc(-c3cncnc3)ccc21` [Example 85b, N-butyl-2-methoxy-5-(pyrimidin-5-yl)-1H-imidazo[4,5-b]pyridine-1-carboxamide], the IC50 in series [1] (setting [3]) is < 200 nM. Moreover, the concentration in solution in series [2] (solubility) came to 54 µg/mL (≈ 165 µM).
On to `COc1nc2cnc(N3CCOCC3)cc2n1C(=O)NCCCc1ccccc1` [Example 213a, 2-Methoxy-6-morpholino-N-(3-phenylpropyl)-1H-imidazo[4,5-c]pyridine-1-carboxamide], for which the IC50 in series [1] (pH 4.5) is < 200 nM. The concentration in solution in series [2] (solubility) was 9 µg/mL (≈ 22.8 µM).
Consider `CCOc1nc2ccccc2n1C(=O)NCCc1ccccc1` [Example 36, 2-Ethoxy-N-phenethyl-1H-benzo[d]imidazole-1-carboxamide], for which the IC50 in series [1] (setting [3]) is < 200 nM. For the same molecule, the solubility in series [2] was 8.4 µg/mL (≈ 27.2 µM).
In the same order, the values of `CSc1nc2cc(-c3cccnc3)cnc2n1C(=O)NCC(C)C` [Example 125] are 200 to 1000 nM and 6 µg/mL (≈ 17.6 µM).
In the same order, the values of `O=C(NCCc1ccccc1)n1cnc2ccc(-c3cncnc3)cc21` [Example 8b, N-phenethyl-6-(pyrimidin-5-yl)-1H-benzo[d]imidazole-1-carboxamide] are < 200 nM and 14.5 µg/mL (≈ 42.2 µM).
The matching figures for `COc1nc2ccc(-c3cncnc3)cc2n1C(=O)NCCC(C)C` [Example 106, N-iso-Pentyl-2-methoxy-6-(pyrimidin-5-yl)-1H-benzo[d]imidazole-1-carboxamide]: 200 to 1000 nM and 13.7 µg/mL (≈ 40.4 µM).
For `CC(C)C#CCNC(=O)n1cnc2c(N3CC(N4CCN(C)CC4)C3)cccc21` [Example 298, N-(4-Methylpent-2-ynyl)-4-(3-(4-methyl-piperazin-1-yl)azetidin-1-yl)-1H-benzo[d]imidazole-1-carboxamide], the IC50 in series [1] (pH 4.5) is < 200 nM. The same molecule gave a solubility in series [2] of 27 µg/mL (≈ 68.4 µM).
`CN1CCN(c2ccc3c(c2)ncn3C(=O)NCCc2ccccc2)CC1` [Example 15a, 5-(4-Methylpiperazin-1-yl)-N-phenethyl-1H-benzo[d]imidazole-1-carboxamide]: in series [1] (setting [3]), the IC50 was < 200 nM. In series [2], this molecule registered a solubility of 20.4 µg/mL (≈ 56.1 µM).
In the same order, the values of `CC(C)CCNC(=O)n1cnc2c(N3CCN(c4cccc5cncn45)CC3)cccc21` [Example 156, 4-(4-(Imidazo[1,5-a]pyridin-5-yl)piperazin-1-yl)-N-iso-pentyl-1H-benzo[d]imidazole-1-carboxamide] are 200 to 1000 nM and 0.2 µg/mL (≈ 0.463 µM).
As for `CN1CCN(c2cccc3c2ncn3C(=O)NCCOc2ccccc2)CC1CC#N` (centres unmarked) [Example 317, 4-(3-(Cyanomethyl)-4-methylpiperazin-1-yl)-N-(2-phenoxyethyl)-1H-benzo[d]imidazole-1-carboxamide], the IC50 in series [1] (pH 4.5) is < 200 nM. The molecule further returned a solubility in series [2] of 26 µg/mL (≈ 62.1 µM).
On to `COc1nc2cc(N3CCOCC3)ccc2n1C(=O)NCCc1ccccc1` [Example 29b, 2-methoxy-5-morpholino-N-phenethyl-1H-benzo[d]imidazole-1-carboxamide], for which the IC50 in series [1] (setting [3]) was 200 to 1000 nM. The same molecule came in with a solubility in series [2] of 3.6 µg/mL (≈ 9.46 µM).
Consider `O=C(NCCCCc1ccccc1)n1cnc2c(N3CCOCC3)cccc21` [Example 137, 4-Morpholino-N-(4-phenylbutyl)-1H-benzo[d]imidazole-1-carboxamide], for which, in series [1] (setting [3]), the IC50 is < 200 nM. Further, the solubility in series [2] turned out to be 0.6 µg/mL (≈ 1.59 µM).
For the molecule `CN1CCN(c2cccc3c2ncn3C(=O)NCC2CCC(F)(F)CC2)CC1` [Example 256, N-((4,4-Difluorocyclohexyl)methyl)-4-(4-methylpiperazin-1-yl)-1H-benzo[d]imidazole-1-carboxamide], in series [1] (pH 4.5), the IC50 was in the range of 200 to 1000 nM. In series [2], this molecule showed a solubility of 24 µg/mL (≈ 61.3 µM).
As for `CCCCNC(=O)n1cnc2c(OC)cccc21` [Example 52, N-Butyl-4-methoxy-1H-benzo[d]imidazole-1-carboxamide], in series [1] (setting [3]), the IC50 was < 200 nM. Further, the concentration in solution in series [2] (solubility) came to 23.2 µg/mL (≈ 93.8 µM).
Regarding `CN1CC2CN(c3cccc4c3ncn4C(=O)NCCCc3ccccc3)CC2C1` (centres unmarked) [Example 266, 4-(5-Methylhexahydropyrrolo[3,4-c]pyrrol-2(1H)-yl)-N-(3-phenylpropyl)-1H-benzo[d]imidazole-1-carboxamide], in series [1] (pH 4.5), the IC50 is < 200 nM. This molecule showed a solubility in series [2] of 34 µg/mL (≈ 84.3 µM).
In the same order, the values of `CC(C)C(=O)N1CCN(c2cccc3c2ncn3C(=O)NCCCC2(C(F)(F)F)CC2)CC1` [Example 234, 4-(4-iso-Butyrylpiperazin-1-yl)-N-(3-(1-(trifluoromethyl)cyclopropyl)propyl)-1H-benzo[d]imidazole-1-carboxamide] are < 200 nM and 1 µg/mL (≈ 2.15 µM).
In the same order, the values of `CC(C)CCNC(=O)n1cnc2c(C3CCN(C)CC3)cccc21` [Example 182, N-iso-Pentyl-4-(1-methylpiperidin-4-yl)-1H-benzo[d]imidazole-1-carboxamide] are 200 to 1000 nM and 32 µg/mL (≈ 97.4 µM).
In the same order, the values of `CNC1CCN(c2cccc3c2ncn3C(=O)NCCOc2ccccc2)C1` (centres unmarked) [Example 315, 4-(3-(Methylamino)pyrrolidin-1-yl)-N-(2-phenoxyethyl)-1H-benzo[d]imidazole-1-carboxamide] are < 200 nM and 30 µg/mL (≈ 79.1 µM).
As to `O=C(NCCc1ccccc1)n1cnc2cc(F)ccc21` [Example 63, 5-Fluoro-N-phenethyl-1H-benzo[d]imidazole-1-carboxamide], in series [1] (setting [3]), the IC50 was < 200 nM. In series [2], this molecule gave a solubility of 2.6 µg/mL (≈ 9.18 µM).
On to `CN1CCN(c2cccc3c2ncn3C(=O)NCC#CCC2(C(F)(F)F)CC2)CC1` [Example 285, 4-(4-Methylpiperazin-1-yl)-N-(4-(1-(trifluoromethyl)cyclopropyl)but-2-yn-1-yl)-1H-benzo[d]imidazole-1-carboxamide], for which the IC50 in series [1] (pH 4.5) is < 200 nM. In series [2], this molecule came in with a solubility of 22 µg/mL (≈ 52.4 µM).
In the same order, the values of `O=C(NCCCc1ccccc1)n1cnc2c(N3CCN4CCCC4C3)cccc21` (centres unmarked) [Example 239, 4-(Hexahydropyrrolo[1,2-a]pyrazin-2(1H)-yl)-N-(3-phenylpropyl)-1H-benzo[d]imidazole-1-carboxamide] are < 200 nM and 17 µg/mL (≈ 42.1 µM).
In the same order, the values of `CC(C)CC1(CNC(=O)n2cnc3c(N4CCOCC4)cccc32)CC1` [Example 227, N-((1-iso-Butylcyclopropyl)methyl)-4-morpholino-1H-benzo[d]imidazole-1-carboxamide] are < 200 nM and 16 µg/mL (≈ 44.9 µM).
With `COc1nc2cc(F)c(N3CCN(C4CN(C)C4)CC3)cc2n1C(=O)NCC#CC(C)C` [Example 320b, 5-fluoro-2-methoxy-6-(4-(1-methylazetidin-3-yl)piperazin-1-yl)-N-(4-methylpent-2-yn-1-yl)-1H-benzo[d]imidazole-1-carboxamide], the IC50 in series [1] (pH 4.5) fell in the range of 200 to 1000 nM. The same molecule yielded a solubility in series [2] of 42 µg/mL (≈ 94.9 µM).
Regarding `CN(C)CCOc1nc2ccccc2n1C(=O)NCCc1ccccc1` [Example 89, 2-(2-(Dimethylamino)ethoxy)-N-phenethyl-1H-benzo[d]imidazole-1-carboxamide], the IC50 in series [1] (setting [3]) is < 200 nM. In series [2], this molecule gave a solubility of 27.6 µg/mL (≈ 78.3 µM).
In the case of `CC(C)C#CCCNC(=O)n1cnc2c(N3CCN(C)CC3)cccc21` [Example 303, N-(5-Methylhex-3-yn-1-yl)-4-(4-methylpiperazin-1-yl)-1H-benzo[d]imidazole-1-carboxamide], in series [1] (pH 4.5), the 50% inhibitory concentration (IC50) was in the range of 200 to 1000 nM. Further, the concentration in solution in series [2] (solubility) came to 28 µg/mL (≈ 79.2 µM).
Turning to `CN1CCN(c2cccc3c2ncn3C(=O)NCCOc2ccccc2)CC1` [Example 257, 4-(4-Methylpiperazin-1-yl)-N-(2-phenoxyethyl)-1H-benzo[d]imidazole-1-carboxamide], the IC50 in series [1] (pH 4.5) is < 200 nM. In series [2], this molecule returned a solubility of 19 µg/mL (≈ 50.1 µM).
In the same order, the values of `CC(=O)N1CCN(c2cccc3c2ncn3C(=O)NCCCC(F)(F)F)CC1` [Example 225, 4-(4-Acetylpiperazin-1-yl)-N-(4,4,4-trifluorobutyl)-1H-benzo[d]imidazole-1-carboxamide] are < 200 nM and 8 µg/mL (≈ 20.1 µM).
Turning to `O=C(NCCc1ccccc1)n1cnc2ncc(C(F)(F)F)cc21` [Example 53, N-Phenethyl-6-(trifluoromethyl)-1H-imidazo[4,5-b]pyridine-1-carboxamide], the IC50 in series [1] (setting [3]) is < 200 nM. Moreover, the concentration in solution in series [2] (solubility) was 4.7 µg/mL (≈ 14.1 µM).
The matching figures for `COc1nc2c(C#N)cccc2n1C(=O)NCCCCc1ccccc1` [Example 138, 4-Cyano-2-methoxy-N-(4-phenylbutyl)-1H-benzo[d]imidazole-1-carboxamide]: < 200 nM and 0.3 µg/mL (≈ 0.861 µM).
In the same order, the values of `O=C(NCCc1cccnc1)n1cnc2ccccc21` [Example 22, N-(2-(Pyridin-3-yl)ethyl)-1H-benzo[d]imidazole-1-carboxamide] are 200 to 1000 nM and 12.9 µg/mL (≈ 48.4 µM).

Values taken from patent publication US20220380319A1 (Bial - R&D Investments, S.A., priority 2019, published 2022).
